The subject of one test is MCF7 cells. Kind of test: Anti-proliferation (viability) of MCF7 cells (Table 7, FIG. 2B). It counts as cell-based. Particulars: Homo sapiens, MCF7, MCF7 cells, 3-6 days, 10-point serial dilution; read-out: GI IC50 in MCF-7.
The target of another test is CDK4 (Homo sapiens, UniProt P11802+Q16531). The test is described as follows: HiBiT detection of HiBiT-tagged CDK4 protein level in MCF7 cells, 16 hours (Table 8). Particulars: MCF7 cells stably expressing HiBiT tagged target proteins; for activity at 0.01 µM: 10 nM, read-out: % CDK4 Relative Level (10 nM); for activity at 0.1 µM: 100 nM, read-out: % CDK4 Relative Level (100 nM). More on the design: expressed in transfected cells; host or cells: MCF7. The test is classed as cell-based. The protocol: HiBiT detection system quantitatively measures total amounts of HiBiT-tagged proteins using a luminescent based method. MCF7 cells stably expressing HiBiT tagged target proteins were treated with heterobifunctional compounds at indicated concentrations for 16 hours, then lysed with Nano-Glo HiBiT Lytic detection reagents.

Molecules are shown by their SMILES.

Chain of CDK4 (P11802 whole entry): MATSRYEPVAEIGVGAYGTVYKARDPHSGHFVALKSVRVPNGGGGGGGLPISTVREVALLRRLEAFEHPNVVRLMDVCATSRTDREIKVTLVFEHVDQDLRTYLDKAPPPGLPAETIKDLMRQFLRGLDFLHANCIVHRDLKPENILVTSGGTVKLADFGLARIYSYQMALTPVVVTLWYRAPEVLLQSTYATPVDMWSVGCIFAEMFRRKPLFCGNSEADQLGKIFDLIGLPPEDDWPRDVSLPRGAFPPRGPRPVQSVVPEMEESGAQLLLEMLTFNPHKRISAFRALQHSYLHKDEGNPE
Chain of CDK4 (P24385 whole entry partner): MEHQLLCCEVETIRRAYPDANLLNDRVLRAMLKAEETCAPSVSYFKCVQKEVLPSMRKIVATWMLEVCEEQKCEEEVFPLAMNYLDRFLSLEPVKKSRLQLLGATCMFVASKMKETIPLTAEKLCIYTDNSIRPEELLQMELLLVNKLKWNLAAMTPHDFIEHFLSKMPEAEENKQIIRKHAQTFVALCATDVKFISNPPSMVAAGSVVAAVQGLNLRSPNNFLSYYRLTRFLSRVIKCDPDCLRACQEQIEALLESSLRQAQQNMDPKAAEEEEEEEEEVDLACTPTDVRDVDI
Chain of CDK4 (Q16531 2-1140 limits assumed): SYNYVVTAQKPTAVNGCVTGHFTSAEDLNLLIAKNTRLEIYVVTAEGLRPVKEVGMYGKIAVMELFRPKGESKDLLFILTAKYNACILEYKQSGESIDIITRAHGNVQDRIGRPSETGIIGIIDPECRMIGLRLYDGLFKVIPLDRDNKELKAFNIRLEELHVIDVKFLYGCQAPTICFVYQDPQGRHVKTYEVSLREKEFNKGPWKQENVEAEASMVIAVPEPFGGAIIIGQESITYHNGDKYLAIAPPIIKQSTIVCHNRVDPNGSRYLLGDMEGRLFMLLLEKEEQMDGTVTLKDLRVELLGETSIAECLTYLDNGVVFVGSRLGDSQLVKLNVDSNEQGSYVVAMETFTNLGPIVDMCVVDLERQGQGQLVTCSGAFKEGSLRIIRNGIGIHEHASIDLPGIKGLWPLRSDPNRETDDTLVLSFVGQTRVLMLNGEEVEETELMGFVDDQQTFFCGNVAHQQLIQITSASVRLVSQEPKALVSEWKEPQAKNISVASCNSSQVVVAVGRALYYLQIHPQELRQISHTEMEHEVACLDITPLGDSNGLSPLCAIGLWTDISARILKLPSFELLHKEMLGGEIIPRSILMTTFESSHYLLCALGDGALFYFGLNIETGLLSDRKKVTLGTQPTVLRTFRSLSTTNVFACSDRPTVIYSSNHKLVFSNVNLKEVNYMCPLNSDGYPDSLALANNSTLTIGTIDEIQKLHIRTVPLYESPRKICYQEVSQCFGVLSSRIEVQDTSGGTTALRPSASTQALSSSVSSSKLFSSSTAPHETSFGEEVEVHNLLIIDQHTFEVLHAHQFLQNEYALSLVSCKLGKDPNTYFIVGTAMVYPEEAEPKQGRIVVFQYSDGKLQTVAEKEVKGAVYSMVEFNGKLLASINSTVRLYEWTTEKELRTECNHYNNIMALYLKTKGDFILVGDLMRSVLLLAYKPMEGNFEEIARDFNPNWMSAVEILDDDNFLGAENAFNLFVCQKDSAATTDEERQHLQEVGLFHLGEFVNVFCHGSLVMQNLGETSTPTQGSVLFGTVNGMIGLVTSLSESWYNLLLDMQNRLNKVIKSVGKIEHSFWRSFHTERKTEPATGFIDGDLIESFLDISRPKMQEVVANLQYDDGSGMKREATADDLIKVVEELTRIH

Regarding `CNc1ccc(C(=O)Nc2ccc(N(C)C)nn2)c(NCCCCCCCNC(=O)CN2CCN(c3ccc(Nc4ncc5cc(C(=O)N(C)C)n(C6CCCC6)c5n4)nc3)CC2)n1` [CPD-629, 7-cyclopentyl-2-((5-(4-(2-((7-((3-((6-(dimethylamino)pyridazin-3-yl)carbamoyl)-6-(methylamino)pyridin-2-yl)amino)heptyl)amino)-2-oxoethyl)piperazin-1-yl)pyridin-2-yl)amino)-N,N-dimethyl-7H-pyrrolo[2,3-d]pyrimidine-6-carboxamide], the concentration for half-maximal inhibition (IC50) in the test with MCF7 cells was more than 0.1 µM. In addition, on CDK4, the activity at 0.01 µM was 55 to 85% and the activity at 0.1 µM was in the range of 55 to 85%.

On to `CNc1ccc(C(=O)Nc2ccc(N(C)C)nn2)c(NCCNC(=O)CN2CCN(Cc3ccc(Nc4ncc(F)c(-c5cc(F)c6nc(C)n(C(C)C)c6c5)n4)nc3)CC2)n1` [CPD-608, N-(6-(dimethylamino)pyridazin-3-yl)-2-((2-(2-(4-((6-((5-fluoro-4-(4-fluoro-1-isopropyl-2-methyl-1H-benzo[d]imidazol-6-yl)pyrimidin-2-yl)amino)pyridin-3-yl)methyl)piperazin-1-yl)acetamido)ethyl)amino)-6-(methylamino)nicotinamide], for which, in the test with MCF7 cells, the IC50 is more than 0.1 µM. Also, on CDK4, the activity at 0.01 µM was more than 85% and the activity at 0.1 µM fell in the range of 55 to 85%.

For the molecule `CC(=O)c1c(C)c2cnc(Nc3ccc(N4CCN(CC(=O)NCC56CC(Nc7nc(NC(C)C)ccc7C(=O)Nc7ccc(N(C)C)nn7)(C5)C6)CC4)cn3)nc2n(C2CCCC2)c1=O` [CPD-429, 2-((3-((2-(4-(6-((6-acetyl-8-cyclopentyl-5-methyl-7-oxo-7,8-dihydropyrido[2,3-d]pyrimidin-2-yl)amino)pyridin-3-yl)piperazin-1-yl)acetamido)methyl)bicyclo[1.1.1]pentan-1-yl)amino)-N-(6-(dimethylamino)pyridazin-3-yl)-6-(isopropylamino)nicotinamide], the IC50 in the test with MCF7 cells is less than 0.05 µM. Moreover, on CDK4, the activity at 0.01 µM was in the range of 55 to 85% and the activity at 0.1 µM lay in the range of 55 to 85%.

As for `CNc1ccc(C(=O)Nc2ccc(N(C)C)nn2)c(NCCCCCCCNC(=O)CN2CCN(c3ccc(Nc4ncc5cc6n(c5n4)C4(CCCCC4)CNC6=O)nc3)CC2)n1` [CPD-645, N-(6-(dimethylamino)pyridazin-3-yl)-6-(methylamino)-2-((7-(2-(4-(6-((6′-oxo-7′,8′-dihydro-6′H-spiro[cyclohexane-1,9′-pyrazino[1′,2′:1,5]pyrrolo[2,3-d]pyrimidin]-2′-yl)amino)pyridin-3-yl)piperazin-1-yl)acetamido)heptyl)amino)nicotinamide], in the test on MCF7 cells, the IC50 is more than 0.1 µM. In addition, at CDK4, the activity at 0.01 µM is more than 85% and the activity at 0.1 µM was more than 85%.

On to `CNc1ccc(C(=O)Nc2ccc(N(C)C)nn2)c(NCCCCC(=O)N2CCN(Cc3ccc(Nc4ncc(F)c(-c5cc(F)c6nc(C)n(C(C)C)c6c5)n4)nc3)CC2)n1` [CPD-602, N-(6-(dimethylamino)pyridazin-3-yl)-2-((5-(4-((6-((5-fluoro-4-(4-fluoro-1-isopropyl-2-methyl-1H-benzo[d]imidazol-6-yl)pyrimidin-2-yl)amino)pyridin-3-yl)methyl)piperazin-1-yl)-5-oxopentyl)amino)-6-(methylamino)nicotinamide], for which the IC50 with MCF7 cells is more than 0.1 µM. Besides, on CDK4, the activity at 0.01 µM is 55 to 85% and the activity at 0.1 µM lay in the range of 55 to 85%.

Take `CC(=O)c1c(C)c2cnc(Nc3ccc(N4CCN(C5CCN(C(=O)C6(O)CCC(Nc7nc(NC(C)C)ccc7C(=O)Nc7ccc(N(C)C)nn7)CC6)C5)CC4)cn3)nc2n(C2CCCC2)c1=O` (stereo not drawn) [CPD-574, 2-((cis-4-(3-(4-(6-((6-acetyl-8-cyclopentyl-5-methyl-7-oxo-7,8-dihydropyrido[2,3-d]pyrimidin-2-yl)amino)pyridin-3-yl)piperazin-1-yl)pyrrolidine-1-carbonyl)-4-hydroxycyclohexyl)amino)-N-(6-(dimethylamino)pyridazin-3-yl)-6-(isopropylamino)nicotinamide]: the IC50 in the test on MCF7 cells was less than 0.05 µM. Also, on CDK4, the activity at 0.01 µM was more than 85% and the activity at 0.1 µM is 55 to 85%.

As for `CC(=O)c1c(C)c2cnc(Nc3ccc(N4CCC5(CCN(CC(=O)N6CC7(CC(Nc8nc(NC(C)C)ccc8C(=O)Nc8ccc(N(C)C)nn8)C7)C6)C5)C4)cn3)nc2n(C2CCCC2)c1=O` (stereo not drawn) [CPD-448, 2-((2-(2-(7-(6-((6-acetyl-8-cyclopentyl-5-methyl-7-oxo-7,8-dihydropyrido[2,3-d]pyrimidin-2-yl)amino)pyridin-3-yl)-2,7-diazaspiro[4.4]nonan-2-yl)acetyl)-2-azaspiro[3.3]heptan-6-yl)amino)-N-(6-(dimethylamino)pyridazin-3-yl)-6-(isopropylamino)nicotinamide], the IC50 with MCF7 cells was less than 0.05 µM. On CDK4, the activity at 0.01 µM lay within 55 to 85% and the activity at 0.1 µM was in the range of 55 to 85%.

For `CC(=O)c1c(C)c2cnc(Nc3ccc(CN4CCN(CC(=O)N5CCC6(CCC(Nc7nc(C(C)C)ccc7C(=O)Nc7ccc(N(C)C)nn7)C6)C5)CC4)cn3)nc2n(C2CCCC2)c1=O` (stereo not drawn) [CPD-583, 2-((2-(2-(4-((6-((6-acetyl-8-cyclopentyl-5-methyl-7-oxo-7,8-dihydropyrido[2,3-d]pyrimidin-2-yl)amino)pyridin-3-yl)methyl)piperazin-1-yl)acetyl)-2-azaspiro[4.4]nonan-7-yl)amino)-N-(6-(dimethylamino)pyridazin-3-yl)-6-isopropylnicotinamide], the half-inhibitory concentration (IC50) with MCF7 cells is less than 0.05 µM. At CDK4, the activity at 0.01 µM is 55 to 85% and the activity at 0.1 µM is 55 to 85%.

Regarding `CC(=O)c1c(C)c2cnc(Nc3ccc(N4CCN(C5CCN(C(=O)C67CC(Nc8nc(NC(C)C)ccc8C(=O)Nc8cn(C)c(C9CC9)n8)(C6)C7)C5)CC4)cn3)nc2n(C2CCCC2)c1=O` (stereo not drawn) [CPD-588, 2-((3-(3-(4-(6-((6-acetyl-8-cyclopentyl-5-methyl-7-oxo-7,8-dihydropyrido[2,3-d]pyrimidin-2-yl)amino)pyridin-3-yl)piperazin-1-yl)pyrrolidine-1-carbonyl)bicyclo[1.1.1]pentan-1-yl)amino)-N-(2-cyclopropyl-1-methyl-1H-imidazol-4-yl)-6-(isopropylamino)nicotinamide], the IC50 in the test with MCF7 cells was less than 0.05 µM. For the same molecule, at CDK4, the activity at 0.01 µM lay within 55 to 85% and the activity at 0.1 µM was 55 to 85%.

Consider `CNc1ccc(C(=O)Nc2ccc(N(C)C)nn2)c(NCCC(=O)N2CCN(Cc3ccc(Nc4ncc(F)c(-c5cc(F)c6nc(C)n(C(C)C)c6c5)n4)nc3)CC2)n1` [CPD-600, N-(6-(dimethylamino)pyridazin-3-yl)-2-((3-(4-((6-((5-fluoro-4-(4-fluoro-1-isopropyl-2-methyl-1H-benzo[d]imidazol-6-yl)pyrimidin-2-yl)amino)pyridin-3-yl)methyl)piperazin-1-yl)-3-oxopropyl)amino)-6-(methylamino)nicotinamide], for which the IC50 with MCF7 cells was more than 0.1 µM. Besides, on CDK4, the activity at 0.01 µM fell in the range of 55 to 85% and the activity at 0.1 µM is 55 to 85%.

In the case of `CC(=O)c1c(C)c2cnc(Nc3ccc(N4CCN(C5CCN(C(=O)C67CC(Nc8nc(C)ccc8C(=O)Nc8ccc(N(C)C)nn8)(C6)C7)C5)CC4)cn3)nc2n(C2CCCC2)c1=O` (stereo not drawn) [CPD-590, 2-((3-(3-(4-(6-((6-acetyl-8-cyclopentyl-5-methyl-7-oxo-7,8-dihydropyrido[2,3-d]pyrimidin-2-yl)amino)pyridin-3-yl)piperazin-1-yl)pyrrolidine-1-carbonyl)bicyclo[1.1.1]pentan-1-yl)amino)-N-(6-(dimethylamino)pyridazin-3-yl)-6-methylnicotinamide], the IC50 in the test with MCF7 cells was less than 0.05 µM. Moreover, at CDK4, the activity at 0.01 µM lay in the range of 55 to 85% and the activity at 0.1 µM was 55 to 85%.

In the case of `CCc1ccc(C(=O)Nc2ccc(N(C)C)nn2)c(NC2CCC3(CCN(C(=O)CN4CCN(Cc5ccc(Nc6ncc7c(C)c(C(C)=O)c(=O)n(C8CCCC8)c7n6)nc5)CC4)C3)C2)n1` (stereo not drawn) [CPD-582, 2-((2-(2-(4-((6-((6-acetyl-8-cyclopentyl-5-methyl-7-oxo-7,8-dihydropyrido[2,3-d]pyrimidin-2-yl)amino)pyridin-3-yl)methyl)piperazin-1-yl)acetyl)-2-azaspiro[4.4]nonan-7-yl)amino)-N-(6-(dimethylamino)pyridazin-3-yl)-6-ethylnicotinamide], the IC50 with MCF7 cells was less than 0.05 µM. Moreover, at CDK4, the activity at 0.01 µM fell in the range of 55 to 85% and the activity at 0.1 µM was in the range of 55 to 85%.

Turning to `CC(=O)c1c(C)c2cnc(Nc3ccc(CN4CCN(CC(=O)N5CCC6(CCC(Nc7nc(C8CC8)ccc7C(=O)Nc7ccc(N(C)C)nn7)C6)C5)CC4)cn3)nc2n(C2CCCC2)c1=O` (stereo not drawn) [CPD-581, 2-((2-(2-(4-((6-((6-acetyl-8-cyclopentyl-5-methyl-7-oxo-7,8-dihydropyrido[2,3-d]pyrimidin-2-yl)amino)pyridin-3-yl)methyl)piperazin-1-yl)acetyl)-2-azaspiro[4.4]nonan-7-yl)amino)-6-cyclopropyl-N-(6-(dimethylamino)pyridazin-3-yl)nicotinamide], the IC50 in the test with MCF7 cells is less than 0.05 µM. Further, at CDK4, the activity at 0.01 µM fell in the range of 55 to 85% and the activity at 0.1 µM lay in the range of 55 to 85%.

Consider `CNc1ccc(C(=O)Nc2ccc(N(C)C)nn2)c(NCCOCCC(=O)N2CCN(c3ccc(Nc4ncc5cc(C(=O)N(C)C)n(C6CCCC6)c5n4)nc3)CC2)n1` [CPD-622, 7-cyclopentyl-2-((5-(4-(3-(2-((3-((6-(dimethylamino)pyridazin-3-yl)carbamoyl)-6-(methylamino)pyridin-2-yl)amino)ethoxy)propanoyl)piperazin-1-yl)pyridin-2-yl)amino)-N,N-dimethyl-7H-pyrrolo[2,3-d]pyrimidine-6-carboxamide], for which the IC50 with MCF7 cells was more than 0.1 µM. On CDK4, the activity at 0.01 µM was 55 to 85% and the activity at 0.1 µM was 55 to 85%.

The IC50 is the concentration that inhibits the measured activity by half.

(Values after patent US20260297081A1, “COMPOUNDS AND METHODS OF TREATING CANCERS” (Cullgen Inc., priority 2023, published 2026).)
